Laboratory results taken from patent US7563899B2, “(S)-N-methylnaltrexone” (Progenics Pharmaceuticals, Inc., priority 2005, dated 2009).
Where a name gives a salt, the structure may show the parent alone.

Key:
[1] = target: T1, μ-opioid receptors in the guinea pig ileum (Cavia porcellus, UniProt A0ACM8Q262); experiment: Guinea pig ileum bioassay, test for antagonist activity (against DAMGO-induced response); details: for Response to DAMGO (1.0E−07 M) in the presence of the compound: percent of control response to DAMGO, mean, n=2
Procedure: (§1) Experimental Conditions. Segments of guinea pig terminal ileum were suspended in 20-ml organ baths filled with an oxygenated (95% O2 and 5% CO2) and pre-warmed (37° C.) physiological salt solution of the following composition (in mM): NaCl 118.0, KCl 4.7, MgSO4 1.2, CaCl2 2.5, KH2PO4 1.2, NaHCO3 25.0 and glucose 11.0 (pH 7.4). Additional experimental conditions were as described in Hutchinson et al. (1975) Brit. J. Pharmacol., 55: 541-546.
(§2) Indomethacin (1 μM), nor-binaltorphimine (0.01 μM), methysergide (1 μM), ondansetron (10 μM) and GR113808 (0.1 μM) were also present throughout the experiments to prevent prostanoid release and to block the k-opioid, 5-HT2, 5-HT3 and 5-HT4 receptors, respectively. The tissues were connected to force transducers for isometric tension recordings. They were stretched to a resting tension of 1 g then allowed to equilibrate for 60 min during which time they were washed repeatedly and the tension readjusted. Thereafter, they were stimulated electrically with pulses of minimal intensity to trigger maximal contractions and 1 ms duration, delivered at 0.1 Hz by a constant current stimulator.
Test for antagonist activity. […] Each concentration was left in contact with the tissues until a stable response was obtained or for a maximum of 15 min.
(§3) Analysis and Expression of Results. The parameter measured was the maximum change in the amplitude of the electrically-evoked twitch contractions induced by each compound concentration.

[2] = target: T1, μ-opioid receptors in the guinea pig ileum; experiment: Guinea pig ileum bioassay, test for agonist activity (inhibition of electrically evoked twitch contractions); details: for Response to the compound (decrease in twitch contraction amplitude): percent of control response to DAMGO 1.0E−07 M
Procedure: as §1, §2
Test for agonist activity. […] The different concentrations were added cumulatively and each was left in contact with the tissues until a stable response was obtained or for a maximum of 15 min.
as §3

[3] = target: human recombinant kappa opioid receptors (Homo sapiens, UniProt P41145); experiment: Radioligand binding assay, kappa opioid receptor
Procedure: Radioligand binding assays were conducted to determine the binding specificity of S-N-methynaltrexone for μ-, κ-, and δ-opiate receptors using methods adapted from scientific literature (Simonin, F et al 1994, Mol. Pharmacol 46:1015-1021; Maguire, P. et al 1992, Eur. J. Pharmacol. 213:219-225; Simonin, F. et al PNAS USA 92(15):1431-1437; Wang, J B 1994, FEBS Lett 338:217-222).

[4] = target: T2, human μ (mu, MOP) receptor (Homo sapiens, UniProt P35372); experiment: cAMP assay in CHO cells expressing human mu receptor, antagonist assay; format: cell-based; details: for cAMP antagonist assay value (Table IX.2): then 30 μM DAMGO, then forskolin
T2 construct: expressed in transfected cells; host or cells: CHO cells
Procedure: Thus full antagonist effect was equivalent to forskolin without any addition of μ-opioid agonist.
Cells were grown to confluence in 96-well plates. Cells were washed and equilibrated in physiological buffer before analysis. 20 ul of drug, 100 uM IBMX and 10 uM forskolin were added and incubated for 25 minutes at room temperature and then the reaction was stopped with the addition of 0.1 N HCl. Extracted cAMP level was determined via competitive EIA assay utilizing alkaline phosphatase. Additional experimental conditions were as described in Toll L., J Pharmacol Exp Ther. (1995) 273(2): 721-7.

[5] = tested on: gastrointestinal transit in rats; experiment: Gastrointestinal transit (charcoal motility) in rats, alone or before morphine; format: in vivo, rat; details: for Mean Motility: ratio of length of charcoal transit/total intestine length, * p<0.05 vs vehicle
Procedure: F. et al J. Pharmacol. Exptl. Therap. 133: 400-408, 1961; D. E. Gmerek, et al J. Pharmacol. Exptl. Ther. 236: 8-13, 1986; and O. Yamamoto et al Neurogastroenterol. Motil. 10: 523-532, 1998.
A control group of rats received 2 mL/kg of a 0.9% saline solution (n=10). After 15 minutes, rats were subcutaneously injected with saline (1 mL/kg) or morphine (3 mg/kg). A 10% suspension of activated charcoal in 0.25% methylcellulose was administered orally at 10 mL/kg to the rats 20 minutes (±2 minutes) after the subcutaneous dose of morphine or saline. The rats were euthanized 25 minutes (±3 minutes) after receiving the charcoal and the intestines were removed and lightly stretched on moist paper along a meterstick. The small intestine from pyloric sphincter to caecum was measured and the distance traveled by the charcoal as a fraction of that length was evaluated for each rat.
Statistically significant effects were determined by ANOVA with Tukey HSD Multiple Comparison Test. Differences with p values <0.05 were considered statistically significant.
Values for charcoal motility were expressed as a percent effect and were calculated in the following manner: The individual distance traveled by the charcoal in centimeters was divided by the total length of the intestines in centimeters (pyloric sphincter to caecum) for each rat. Mean values were calculated for each group, and the percent effect was calculated using the following formula: […]

[6] = target: T2, human μ (mu, MOP) receptor; experiment: cAMP assay in CHO cells expressing human mu receptor, agonist assay; format: cell-based
[7] = 1 mg/kg sc + Morphine 3 mg/kg sc
[8] = 3 mg/kg sc + Morphine 3 mg/kg sc
[9] = 10 mg/kg sc + Morphine 3 mg/kg sc

T1 sequence (A0ACM8Q262 1-400): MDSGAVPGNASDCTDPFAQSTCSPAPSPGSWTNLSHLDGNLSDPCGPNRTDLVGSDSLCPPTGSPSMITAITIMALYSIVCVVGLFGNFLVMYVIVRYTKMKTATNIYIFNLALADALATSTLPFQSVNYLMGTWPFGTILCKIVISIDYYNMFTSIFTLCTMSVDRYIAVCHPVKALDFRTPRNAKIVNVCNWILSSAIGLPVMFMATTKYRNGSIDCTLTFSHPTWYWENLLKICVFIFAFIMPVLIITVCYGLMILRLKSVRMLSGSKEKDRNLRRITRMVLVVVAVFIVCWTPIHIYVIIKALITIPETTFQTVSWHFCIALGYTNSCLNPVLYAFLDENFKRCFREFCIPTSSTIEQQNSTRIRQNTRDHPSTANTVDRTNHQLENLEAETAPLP
T2 sequence (P35372 whole entry): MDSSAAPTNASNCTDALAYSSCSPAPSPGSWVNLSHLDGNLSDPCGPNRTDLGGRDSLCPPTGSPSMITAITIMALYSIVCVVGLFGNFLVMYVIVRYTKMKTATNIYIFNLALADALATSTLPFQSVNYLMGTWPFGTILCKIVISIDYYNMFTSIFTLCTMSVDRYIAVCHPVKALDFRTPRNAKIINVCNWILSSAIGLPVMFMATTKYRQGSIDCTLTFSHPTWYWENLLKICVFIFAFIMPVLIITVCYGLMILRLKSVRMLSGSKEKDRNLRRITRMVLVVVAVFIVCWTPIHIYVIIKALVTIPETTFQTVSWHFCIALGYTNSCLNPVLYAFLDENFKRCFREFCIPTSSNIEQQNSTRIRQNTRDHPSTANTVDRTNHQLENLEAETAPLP
Sequence of human recombinant kappa opioid receptors (P41145 whole entry): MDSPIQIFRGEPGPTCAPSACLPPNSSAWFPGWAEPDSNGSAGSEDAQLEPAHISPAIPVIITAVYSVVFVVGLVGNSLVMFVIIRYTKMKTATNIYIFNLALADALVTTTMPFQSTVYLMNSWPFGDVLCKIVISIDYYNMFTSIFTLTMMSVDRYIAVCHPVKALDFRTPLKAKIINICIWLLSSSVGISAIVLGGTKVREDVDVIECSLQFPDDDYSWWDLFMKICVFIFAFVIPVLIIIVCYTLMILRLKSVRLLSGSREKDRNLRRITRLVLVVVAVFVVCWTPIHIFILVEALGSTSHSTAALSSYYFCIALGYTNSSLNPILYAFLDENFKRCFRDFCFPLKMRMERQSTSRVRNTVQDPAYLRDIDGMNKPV

## C[N@@+]1(CC2CC2)CC[C@]23c4c5ccc(O)c4OC2C(=O)CCC3(O)C1C5 (stereo partly drawn) [S-MNTX, (S)-N-(cyclopropylmethyl)-noroxymorphone methyl salt]
[1]; compound 1.0E−04 M
  Response to DAMGO (1.0E−07 M) in the presence of the compound: 110%
[1]; compound 1.0E−05 M
  Response to DAMGO (1.0E−07 M) in the presence of the compound: 105%
[1]; compound 1.0E−06 M
  Response to DAMGO (1.0E−07 M) in the presence of the compound: 100%
[1]; compound 1.0E−07 M
  Response to DAMGO (1.0E−07 M) in the presence of the compound: 100%
[1]; compound 1.0E−08 M
  Response to DAMGO (1.0E−07 M) in the presence of the compound: 100%
[1]; compound 3.0E−05 M
  Response to DAMGO (1.0E−07 M) in the presence of the compound: 109%
[1]; compound 3.0E−06 M
  Response to DAMGO (1.0E−07 M) in the presence of the compound: 102%
[1]; compound 3.0E−07 M
  Response to DAMGO (1.0E−07 M) in the presence of the compound: 100%
[1]; compound 3.0E−08 M
  Response to DAMGO (1.0E−07 M) in the presence of the compound: 100%
[1]; guinea pig ileum, against DAMGO 1.0E−07 M
  Antagonist activity IC50 value: No antagonist activity
[2]; 1.0E−04 M, mean, n=2
  Response to the compound (decrease in twitch contraction amplitude): 109%
[2]; 1.0E−05 M, mean, n=2
  Response to the compound (decrease in twitch contraction amplitude): 92%
[2]; 1.0E−06 M, mean, n=2
  Response to the compound (decrease in twitch contraction amplitude): 35%
[2]; 1.0E−07 M, mean, n=2
  Response to the compound (decrease in twitch contraction amplitude): 5%
[2]; 1.0E−08 M, mean, n=2
  Response to the compound (decrease in twitch contraction amplitude): 0%
[2]; 3.0E−05 M, mean, n=2
  Response to the compound (decrease in twitch contraction amplitude): 109%
[2]; 3.0E−06 M, mean, n=2
  Response to the compound (decrease in twitch contraction amplitude): 59%
[2]; 3.0E−07 M, mean, n=2
  Response to the compound (decrease in twitch contraction amplitude): 16%
[2]; 3.0E−08 M, mean, n=2
  Response to the compound (decrease in twitch contraction amplitude): 0%
[2]; compound 1.0E−04 M + naloxone 1.0E−07 M, percent of control response to DAMGO, mean, n=2
  Response to the compound +naloxone: 17%
[2]; field-stimulated guinea pig ileum
  behaviour at the μ-opioid receptors in this tissue: behaves as an agonist
[2]; guinea pig ileum, linear regression of concentration-response curve
  EC50: 2000 nM
[3]
  Ki: 1760 nM
[4]; cAMP antagonist assay
  antagonist effect in cAMP assay: no antagonist effect
[4]; log{M} conc −4.0
  cAMP antagonist assay value (Table IX.2): −13
[4]; log{M} conc −4.5
  cAMP antagonist assay value (Table IX.2): −13
[4]; log{M} conc −5.0
  cAMP antagonist assay value (Table IX.2): −9
[4]; log{M} conc −5.5
  cAMP antagonist assay value (Table IX.2): −8
[4]; log{M} conc −6.0
  cAMP antagonist assay value (Table IX.2): −1
[4]; log{M} conc −6.5
  cAMP antagonist assay value (Table IX.2): 9
[4]; log{M} conc −7.0
  cAMP antagonist assay value (Table IX.2): 5
[4]; log{M} conc −7.5
  cAMP antagonist assay value (Table IX.2): 6
[4]; log{M} conc −8.0
  cAMP antagonist assay value (Table IX.2): 4
[4]; log{M} conc −9.0
  cAMP antagonist assay value (Table IX.2): 0
[5]; [7]
  Percent Decrease: 54%
  Mean Motility: 0.281*
[5]; [8]
  Percent Decrease: 57%
  Mean Motility: 0.258*
[5]; [9]
  Percent Decrease: 80%
  Mean Motility: 0.122*
[5]; 10 mg/kg sc + Saline
  Percent Decrease: 21%
  Mean Motility: 0.476*
[5]; rats, sc, 15 minutes before morphine 3 mg/kg
  effect on GI transit in combination with / prior to morphine: dramatic synergistic agonist effect in decreasing GI motility
[5]; rats, sc, alone
  effect on GI transit when administered alone: decreased GI motility
[6]; CHO cells, human recombinant mu receptor, 10 uM forskolin, 100 uM IBMX, read-out: EC50 (agonist response, inhibition of forskolin-induced cAMP)
  EC50: 600 nM
[6]; cAMP agonist assay
  nature of the agonist response: complete (not partial)
[6]; log{M} conc −4.0
  cAMP agonist assay value (Table IX.1): 3
[6]; log{M} conc −4.5
  cAMP agonist assay value (Table IX.1): −3
[6]; log{M} conc −5.0
  cAMP agonist assay value (Table IX.1): 4
[6]; log{M} conc −5.5
  cAMP agonist assay value (Table IX.1): 11
[6]; log{M} conc −6.0
  cAMP agonist assay value (Table IX.1): 32
[6]; log{M} conc −6.5
  cAMP agonist assay value (Table IX.1): 66
[6]; log{M} conc −7.0
  cAMP agonist assay value (Table IX.1): 70
[6]; log{M} conc −7.5
  cAMP agonist assay value (Table IX.1): 79
[6]; log{M} conc −8.0
  cAMP agonist assay value (Table IX.1): 104
[6]; log{M} conc −9.0
  cAMP agonist assay value (Table IX.1): 86
